One data set concerns the target T1, Acetylcholinesterase (Rattus norvegicus, UniProt P37136).
T1 construct: Using the S1 fraction of a male Wistar rat cerebral cortex homogenate as a source of cholinesterase; from tissue; host or cells: male Wistar rat cerebral cortex homogenate, S1 fraction
Nature of the data set: cholinesterase inhibitory activity using (acetyl-[^3 H])-acetylcholine, S1 fraction of rat cerebral cortex homogenate. It counts as biochemical, male Wistar rat. To be noted: 30 min incubation.

In data set [1] the test system is [^3 H]-norepinephirine(NE) uptake. The data set can be described thus: monoamine uptake inhibition, [^3 H]-norepinephirine (NE), crude synaptosomal preparations of cerebral cortex and hippocampus. To be noted: [^3 H]-NE 11 nM; 37° C; rat synaptosomes; read-out: Monoamine Reuptake Inhibitory Activity IC50, NE. It counts as biochemical. The procedure:
(§1) Effects of the compound of this invention on monoamine uptake were investigated using [^3 H]-norepinephirine(NE) and [3H]-serotonin (5-HT). Rats were sacrificed by decapitation. The cerebral cortex and hippocampus were removed and homogenized in 10-15 volumes (W/V) of an ice-cold medium containing 0.32M sucrose. Crude synaptosomal preparations (P2) were isolated after differential centrifugation at 1000×g for 10 min and 20,000×g for 30 min at 4° C. Synaptosomal membranes were suspended in Krebs-Ringer bicarbonate (KRB) solution (116 mM NaCl, 4.8 mM KCl, 1.3 mM CaCl2, 1.2 mM MgSO4, 1.2 mM NaH2 PO4, 25 mM NaHCO3, 0.1 mM EDTA-2Na, 11.1 mM D-glucose, 0.11 mM L-ascorbic acid, 0.01 mM pargyline). Synaptosomal membrane suspension (900 μl) was preincubated with the test compound dissolved in DMSO solution at 37° C. for 5 min. The reaction was initiated by addition of 100 μl of [^3 H]-NE (11 nM in final concentration) or [^3 H]-HT (10 nM in final concentration). Five minutes later, the reaction was stopped by the addition of 4 ml of ice-cold KRB and the reaction mixture was filtered through Whatman CF/B. Filters were washed twice with 4 ml of KRB and the radioactivity bound was counted with liquid scintillant. Imipramine was used as positive control.

The subject of data set [2] is [3H]-serotonin (5-HT) uptake. Nature of the data set: monoamine uptake inhibition, [3H]-serotonin (5-HT), crude synaptosomal preparations of cerebral cortex and hippocampus. It counts as biochemical. Particulars: [^3 H]-HT 10 nM; 37° C; rat synaptosomes; read-out: Monoamine Reuptake Inhibitory Activity IC50, 5-HT. The procedure:
as §1

The conditions of data set [3]: background art; cited from earlier work.

Where a name gives a salt, the structure may show the parent alone.

T1 sequence (P37136 32-614): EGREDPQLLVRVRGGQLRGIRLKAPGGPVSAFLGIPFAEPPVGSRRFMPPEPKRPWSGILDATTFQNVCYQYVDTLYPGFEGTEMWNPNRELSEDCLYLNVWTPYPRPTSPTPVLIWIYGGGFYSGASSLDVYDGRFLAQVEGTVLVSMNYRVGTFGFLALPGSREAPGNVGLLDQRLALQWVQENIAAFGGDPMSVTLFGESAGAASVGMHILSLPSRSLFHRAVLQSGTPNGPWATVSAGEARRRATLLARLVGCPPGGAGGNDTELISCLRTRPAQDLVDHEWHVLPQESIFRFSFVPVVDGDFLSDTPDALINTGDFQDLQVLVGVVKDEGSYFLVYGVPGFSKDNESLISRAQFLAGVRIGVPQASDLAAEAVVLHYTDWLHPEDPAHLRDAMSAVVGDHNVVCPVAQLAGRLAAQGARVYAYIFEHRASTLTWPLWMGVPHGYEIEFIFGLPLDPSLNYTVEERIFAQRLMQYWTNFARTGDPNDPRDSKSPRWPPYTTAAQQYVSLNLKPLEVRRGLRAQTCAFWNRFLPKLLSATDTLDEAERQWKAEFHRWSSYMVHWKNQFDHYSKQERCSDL
Experimental for Acetylcholinesterase: The cholinesterase inhibitory activity of the compound of the present invention was tested, using (acetyl-[^3 H])-acetylcholine. Using the S1 fraction of a male Wistar rat cerebral cortex homogenate as a source of cholinesterase, (acetyl-[^3 H])-acetylcholine, as a substrate, and the test compound, as a sample, were incubated for 30 minutes. After the reaction was terminated, a toluene scintillator was added and the reaction mixture was shaken to migrate the [^3 H]-acetic acid resulting from the reaction to the toluene layer, where radioactivity was counted using a liquid scintillation counter to determine the cholinesterase inhibitory activity.
The sample's cholinesterase inhibitory activity was expressed by 50% inhibitory concentration (IC50).

Consider `Cc1cccc(CN2CCN(CCC(=O)c3cc4c5c(c3)CC(=O)N5CCC4)CC2)c1` [30-1], for which the results for the IC50 (against Acetylcholinesterase; in data set [1]; in data set [2]) were 28.7 nM, 4600 nM and 95.6 nM, respectively.
For `Cc1cccc(CN2CCN(CCC(=O)c3cc4c5c(c3)CCN5C(=O)CC4)CC2)c1` [30-19], in that order: 11.9 nM, 2820 nM and 66 nM.
For `O=C(CCN1CCN(Cc2ccccc2Cl)CC1)c1cc2c3c(c1)CCN3C(=O)CC2` [30-21], in that order: 3.6 nM, 1540 nM and 88.2 nM.
Turning to `O=C(CCN1CCN(Cc2cccc(Cl)c2)CC1)c1cc2c3c(c1)CCN3C(=O)CC2` [30-22], the IC50 (commonly the point on the concentration scale where inhibition reaches its midpoint) against Acetylcholinesterase amounted to 6.2 nM; in data set [1], 795 nM; in data set [2] it was 60.1 nM.
For the compound `O=C(CCN1CCN(Cc2cccc(F)c2)CC1)c1cc2c3c(c1)CCN3C(=O)CC2` [30-25], the IC50 at Acetylcholinesterase turned out to be 0.098 nM; in data set [1], 1310 nM; in data set [2] it was 11.7 nM.
For `Cc1ccc(C)c(CN2CCN(CCC(=O)c3cc4c5c(c3)CCN5C(=O)CC4)CC2)c1` [30-27], in that order: 188 nM, 559 nM and 79.8 nM.
For `O=C(CCN1CCC(Cc2ccccc2)CC1)c1cc2c3c(c1)CCN3C(=O)CC2` [31-4], in that order: 188 nM, 160 nM and 20.7 nM.
For `O=C(CCC1CCN(Cc2ccccc2)CC1)c1ccc2c3c1CCCC3CN2` (centres unmarked) [compound 4, 1-(1,2,2a,3,4,5-Hexahydrobenz[cd]indol-6-yl)-3-[1-(phenylmethyl)piperidin-4-yl]-1-propanone dihydrochloride], in that order: 91.8 nM, 347 nM and 601 nM.
`Cc1ccccc1CN1CCN(CCC(=O)c2cc3c4c(c2)CC(=O)N4CCC3)CC1` [compound 23, 8-[3-[4-[(2-Methylphenyl)methyl]-1-piperazinyl]-1-oxopropyl]-5,6-dihydro-4H-pyroro[3,2,1-ij]quinolin-2(1H)-one dihydrochloride]: the IC50 at Acetylcholinesterase was determined as 61.4 nM; in data set [1], 2430 nM; in data set [2], 66.8 nM.
As to `CNC(=O)Oc1ccc2c(c1)[C@]1(C)CCN(C)[C@@H]1N2C` [physostigmine], in data set [3], the duration of action result was “short duration of action” and the toxicity result is listed as “strong toxicity”.

The record behind these values is US5686466A, “Tricyclic condensed heterocyclic compounds their production and use” (priority 1993, dated 1997).
